# Patent publication US20240217988A1, “ESTROGEN RECEPTOR ANTAGONIST” (Shenzhen Forward Pharmaceuticals Co., Limited, priority 2021, published 2024)
# What was measured:
# ERα = ERα (Homo sapiens (Human), UniProt P03372); experiment: Degradation effect of compound on ERα (ERα DuoSet IC ELISA in MCF-7 cells); assay type: cell-based; settings: 24 h with compound, read-out: IC50 value of ERα degradation by compound
# Experimental: In this test example, ERα DuoSet IC ELISA Kit (R&D, DYC5715) was used to detect the degradation effect of the compound on ERα. On the first day of the experiment, human breast cancer cells MCF-7 (the source was as above) were inoculated into a 24-well plate. The culture medium was an MEM culture medium containing 10% of activated-carbon-treated FBS (Tocyto, UT61204), 1% of pyruvic acid and 1% of nonessential amino acid. The inoculation density was 150,000 cells/well. The cells were cultured at 37° C., 5% CO2 for 24 h.
# On the second day of the experiment, the compound to be tested was diluted in gradient and added to a 24-well plate containing cells. The cells were cultured for 24 h at 37° C., 5% CO2. ERα capture antibody was diluted to 1 μg/ml with PBS (Corning, 21-040-CVR) and added to a 96-well plate at 100 μL/well, and the plate was […] coated overnight at room temperature.
# On the third day of the experiment, the coated 96-well plate was washed three times with PBS, 300 μL of a blocking solution (R&D, DY995) was added to each well, and the plate was blocked at room temperature for 1 h. The 24-well plate was washed once with PBS, and the residual liquid was sucked off. […] The diluted cell lysate was taken and added to the blocked 96-well plate, with 100 μL per well, and incubated at room temperature for 2 h. The plate was washed three times with a washing solution (R&D, WA126), and a primary antibody was then added. After incubation for 1 h, the 96-well plate was washed four times, a secondary antibody was added, and incubation was carried out at room temperature in the dark for 30 min. The plate was washed four times with the washing solution, and TMB (R&D, DY999) was added. After 15 minutes of development, the reaction was terminated with a stop solution (R&D, DY994), and the light absorption at 450 nm was read.
# GST-ERα-LBD = GST-ERα-LBD (Homo sapiens (Human), UniProt P03372); experiment: ERα TR-FRET test; assay type: biochemical; settings: estradiol final concentration 1.5 nM, biotin-SRC2
# Sequence of GST-ERα-LBD (P03372 311-547): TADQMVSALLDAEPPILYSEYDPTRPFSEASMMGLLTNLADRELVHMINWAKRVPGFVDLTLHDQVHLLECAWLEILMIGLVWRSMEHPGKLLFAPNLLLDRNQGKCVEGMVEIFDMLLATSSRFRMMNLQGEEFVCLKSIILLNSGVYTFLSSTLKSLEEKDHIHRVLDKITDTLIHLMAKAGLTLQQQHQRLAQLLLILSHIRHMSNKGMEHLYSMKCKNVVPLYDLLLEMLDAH
# Experimental: 1× Tris-HCl (Sigma, PHG0002) protein buffer was prepared and mixed for later use. The compound to be detected was prepared into a stock solution with a concentration of 2 mM and then subjected to serial 3-fold gradient dilution, resulting in a total of 10 concentrations.
# Preparation of 1× protein mixed solution: firstly, 2× GST-ERα-LBD (Invitrogen, A15677)/MAb anti-GST-Eu (Cisbio, 61GSTKLA) mixed solution was prepared according to the following table.
# 2× biotin-SRC2/streptavidin-XL665 (Cisbio, 610SAXLA) mixed solution was prepared.
# The above 2× GST-NR-LBD/ MAb anti-GST-Eu solution and 2× biotin-SRC2/streptavidin-XL665 solution were uniformly mixed at a volume ratio of 1:1; and the 1× protein mixed solution was added to each well of a 384-well plate, with 20 μL being added per well, the 384-well plate was put into a centrifuge and centrifuged at room temperature at 1000 rpm for 10 seconds, and it was taken out, then left to stand at room temperature for 3 h, and then read by EnVision multifunctional microplate reader.
# The inhibition rate was calculated according to the following formula: […]
# The data were imported into Graphpad Prism, and Log(agonist) vs. response-variable slope was used for curve fitting.
# Y=Bottom+(Top−Bottom)/(1+10^((LogEC50−X)*HillSlope)) Fitting formula
# [1] = Stability in human liver microsomes in vitro; assay type: in vitro ADME; settings: human liver microsomes
# Experimental: Test Example 4: Test for Stability in Human Liver Microsomes In Vitro Eight 96-well incubation plates were prepared and named [NT], Blank60 and NCF60, respectively. […] No test compound or control compound was added to Blank60 plate, and samples were taken after incubation for 60 min. NCF60 plate was incubated with a potassium phosphate buffer instead of an NADPH regeneration system solution (Sigma, N0505) for 60 min. […] Only the microsome working solution was added to Blank60 plate, and the incubation plates Blank60, T5, T15, T30, T45 and T60 except T0 and NCF60 were then placed in a water bath at 37° C. and pre-incubated for about 10 min. To the samples of T0 plate, 600 μL of a stop solution (acetonitrile:methanol (95:5, v/v) solution containing 100 ng/mL of tolbutamide (Sigma, T0891)) was added first, and the NADPH regeneration system working solution was then added. 98 μL of a potassium phosphate buffer was added to each well of NCF60 plate and incubated for 60 min. After the pre-incubation in the incubation plates Blank60, T5, T15, T30, T45 and T60 was completed, 98 μL of the NADPH regeneration system working solution was added to each sample well to initiate the reaction. After an appropriate incubation time (such as 5, 15, 30, 45 and 60 min), 600 μL of a stop solution was added to each sample well and the control sample well in Blank60, […] the reaction. All the sample plates were shaken uniformly and centrifuged at 3220×g for 20 min. 200 μL of test sample supernatant was separately taken and diluted in 200 μL of an aqueous solution containing 0.3% formic acid for LC-MS/MS analysis, and 100 μL of control sample supernatant was taken and diluted in 300 μL of pure water for LC-MS/MS analysis. Calculation was performed according to the following formula: [formula] [formula] [formula] [formula] [formula] [formula]
# [2] = tested on: Human breast cancer cells MCF-7; experiment: MCF-7 cell proliferation experiment; assay type: cell-based; settings: Homo sapiens, MCF7; MCF-7 cells, 72 hours, Cell Titer-Glo
# Experimental: Test Example 2: MCF-7 Cell Proliferation Experiment
# Human breast cancer cells MCF-7 (HTB-22, purchased from ATCC) were inoculated into a 96-well plate. The culture medium was an MEM (Hyclone, SH30024.01B) culture medium containing 10% of FBS (Gibco, 10099-141), 1% of pyruvic acid (Sigma, S8636), and 1% of nonessential amino acid (Sigma, M7145), and the inoculation density was 4,000 cells/well. The cells were cultured at 37° C., 5% CO2. The compound was prepared into a 20 mM stock solution, which was subjected to gradient dilution to a final concentration of […] with 100% DMSO (Sigma, D2650) and then diluted 20 folds with a culture medium containing 2% of FBS. After 24 hours of culture, the culture medium was removed, 90 μL of a culture medium containing 2% of FBS and 10 μL of drug were added to each well, while 10 μL of DMSO was added to the control group, and they were gently shaken and mixed. The blank group only contained 100 μL of 2% FBS culture medium. They were placed in an incubator and cultured at 37° C., 5% CO2. After 72 hours, 50 μL of mixed Cell Titer-Glo (Promega, G7571) was added. They were shaken and mixed uniformly, and placed at room temperature for 10 min. The chemiluminescence signal value was determined. The negative control was 0.5% DMSO well.
# Sequence of ERα (P03372 whole entry): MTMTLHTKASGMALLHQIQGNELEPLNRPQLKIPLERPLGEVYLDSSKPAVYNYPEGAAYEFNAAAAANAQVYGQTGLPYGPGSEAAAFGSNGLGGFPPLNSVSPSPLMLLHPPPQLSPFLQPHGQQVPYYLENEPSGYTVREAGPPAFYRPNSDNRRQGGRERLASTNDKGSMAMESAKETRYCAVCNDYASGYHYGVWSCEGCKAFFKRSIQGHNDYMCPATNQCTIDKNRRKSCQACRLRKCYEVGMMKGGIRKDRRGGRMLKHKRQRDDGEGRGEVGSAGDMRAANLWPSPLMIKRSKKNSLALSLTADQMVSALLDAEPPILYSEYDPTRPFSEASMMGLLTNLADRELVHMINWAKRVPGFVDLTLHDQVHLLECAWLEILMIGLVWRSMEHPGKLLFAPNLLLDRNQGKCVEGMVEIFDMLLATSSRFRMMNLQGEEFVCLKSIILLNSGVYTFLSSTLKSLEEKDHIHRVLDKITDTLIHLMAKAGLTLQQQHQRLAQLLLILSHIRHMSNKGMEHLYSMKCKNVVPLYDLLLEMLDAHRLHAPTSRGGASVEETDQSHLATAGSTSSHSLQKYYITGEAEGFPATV
smiles,measurement,setting,value
"COc1cc(NC2CN(CCCF)C2)cc(F)c1[C@@H]1c2ccc3[nH]c(=O)oc3c2C[C@@H](C)N1CC(F)(F)F [Example 34, (6S,8R)-6-(4-((1-(3-fluoropropyl)azetidin-3-yl)amino)-2-methoxy-6-fluoro-phenyl)-8-methyl-7-(2,2,2-trifluoroethyl)-6,7,8,9-6,7,8,9-tetrahydrooxazolo[5,4-f]isoquinolin-2(3H)-one]",DC50,ERα,0.24 nM
same,IC50,GST-ERα-LBD,19.4 nM
same,half-life,"[1]; microsome protein 1 mg/mL working solution, NADPH",1.78 h
same,CLint scaled,[1]; scaled to liver,8.9 mL/min/kg
same,microsomal CLint,[1]; read-out: CLint(mic),10.1 µL/min/mg
same,IC50,[2],0.19 nM
